System: LTB4 biosynthesis in human polymorphonuclear leukocytes (PMNs)
Assay: Inhibition of LTB4 biosynthesis in human polymorphonuclear leukocytes (PMNs)
Format: cell-based
Conditions: Homo sapiens, Leukocyte, Table 4, Pyridyl; values with <: see footnote d, Table 1
Protocol: Inhibition of LTB4, biosynthesis in human polymorphonuclear leukocytes (PMNs)
The inhibition of leukotriene biosynthesis is measured by determining whether and to what extent test compounds can inhibit LTB4 production from endogenous arachidonic acid in human peripheral blood leukocytes.
To 48-well tissue culture plates was added a solution of the test compound followed by addition of human polymorphonuclear leukocytes isolated from peripheral blood at a density of 1.5×10^6 cells/well. Culture plates were preincubated for fifteen minutes with shaking at 28° C. Cells were stimulated with calcium ionophore A23187 at a final concentration of 2.5 μM for an additional ten minutes. The reaction was terminated by the addition of an EGTA solution (10 mM final concentration)followed by centrifugation at 1500 rpm at 10° C. Supernatants were stored at -70° C. LTB4 levels were determined by RIA using a commercially available kit. Nonlinear regression analysis was used to calculate. IC50 values.
The following tables show % inhibition of LTB4 biosynthesis by compounds of the invention at test concentrations indicated, with the determined IC50 shown in μM.

IC50 [nM]	SMILES
23	Clc1ccc2oc(NC(CC3CCCCC3)c3cccnc3)nc2c1 (centres unmarked) [Compound 86]
2	Clc1ccc2oc(NC(CC3CCCCC3)c3ccccn3)nc2c1 (centres unmarked) [Compound 91]
12	COC(=O)c1ccc2oc(NC(CC3CCCCC3)c3ccccn3)nc2c1 (centres unmarked) [Compound 92]
19	Fc1ccc(CC(Nc2nc3cc(Cl)ccc3o2)c2ccccn2)cc1 (centres unmarked) [Compound 93]
12	CC(C)c1ccc2oc(NC(Cc3ccc(F)cc3)c3ccccn3)nc2c1 (centres unmarked) [Compound 94]
1.2	FC(F)(F)c1ccc2oc(NC(CC3CCCCC3)c3ccccn3)nc2c1 (centres unmarked) [Compound 95]
27	Fc1ccc(CC(Nc2nc3cc(Cl)ccc3s2)c2ccccn2)cc1 (centres unmarked) [Compound 96]
4	Clc1ccc2sc(NC(CC3CCCCC3)c3ccccn3)nc2c1 (centres unmarked) [Compound 97]
29	CC(C)c1ccc2oc(NC(Cc3ccc(Cl)cc3)c3ccccn3)nc2c1 (centres unmarked) [Compound 98]
14	Clc1ccc(CC(Nc2nc3cc(Cl)ccc3o2)c2ccccn2)cc1 (centres unmarked) [Compound 99]
5	CC(C)c1ccc2oc(NC(Cc3cccc(Cl)c3)c3ccccn3)nc2c1 (centres unmarked) [Compound 100]
27	COC(=O)c1ccc2oc(NC(Cc3ccc(F)cc3)c3ccccn3)nc2c1 (centres unmarked) [Compound 101]
50	CN(C)S(=O)(=O)c1ccc2oc(NC(Cc3ccc(F)cc3)c3ccccn3)nc2c1 (centres unmarked) [Compound 103]
< 30	O=[N+]([O-])c1ccc(CC(Nc2nc3cc(Cl)ccc3o2)c2ccccn2)cc1 (centres unmarked) [Compound 104]
< 30	Fc1ccc2oc(NC(Cc3cccc(Cl)c3)c3ccccn3)nc2c1 (centres unmarked) [Compound 105]
< 1000	Fc1ccc(CC(Nc2nc3ccc(C(F)(F)F)cc3s2)c2ccccn2)cc1 (centres unmarked) [Compound 106]
8	Fc1ccc(CC(Nc2nc3cc(C(F)(F)F)ccc3o2)c2ccccn2)cc1 (centres unmarked) [Compound 107]
2	Fc1ccc2oc(NC(CC3CCCCC3)c3ccccn3)nc2c1 (centres unmarked) [Compound 109]
21	Fc1ccc(CC(Nc2nc3cc(F)ccc3o2)c2ccccn2)cc1 (centres unmarked) [Compound 110]
4	Fc1ccc2oc(NC(CC3CCCCC3)c3ccccn3)nc2c1F (centres unmarked) [Compound 111]
1	Fc1cc2nc(NC(CC3CCCCC3)c3ccccn3)oc2cc1F (centres unmarked) [Compound 112]
24	Fc1ccc(CC(Nc2nc3cc(F)c(F)cc3o2)c2ccccn2)cc1 (centres unmarked) [Compound 113]
11	COc1ccc2oc(NC(Cc3ccc(F)cc3)c3ccccn3)nc2c1 (centres unmarked) [Compound 114]
< 30	O=[N+]([O-])c1ccc2oc(NC(Cc3ccc(F)cc3)c3ccccn3)nc2c1 (centres unmarked) [Compound 115]
< 100	Cc1nc(CC(Nc2nc3cc(C(C)C)ccc3o2)c2ccccn2)cs1 (centres unmarked) [Compound 116]
< 100	Cc1nc(CC(Nc2nc3cc(Cl)ccc3o2)c2ccccn2)cs1 (centres unmarked) [Compound 117]

Same assay, conditions: Homo sapiens, Leukocyte, Table 5, Thiophene

IC50 [nM]	SMILES
6.2	c1csc(C(CC2CCCCC2)Nc2nc3ccccc3o2)c1 (centres unmarked) [Compound 120]

Same assay, conditions: Homo sapiens, Leukocyte, Table 6, Methyloxadiazole; values with <: see footnote d, Table 1

IC50 [nM]	SMILES
1300	Cc1noc(C(Cc2ccccc2)Nc2nc3ccccc3s2)n1 (centres unmarked) [Compound 121]
1800	Cc1noc([C@H](Cc2ccccc2)Nc2nc3ccccc3s2)n1 [Compound 122]
< 1000	CCc1ccc2sc(N[C@@H](Cc3ccccc3)c3nc(C)no3)nc2c1 [Compound 123]
120	Cc1noc([C@H](CC2CCCCC2)Nc2nc3ccccc3s2)n1 [Compound 124]
28	Cc1ccc2oc(N[C@@H](CC3CCCCC3)c3nc(C)no3)nc2c1 [Compound 125, L-2-[2-Cyclohexyl-1-(3-methyl-1,2,4-oxadiazol-5-yl)ethyl]amino-5-methylbenzoxazole]
< 300	Cc1noc(C(Cc2ccc(F)cc2)Nc2nc3cc(C(C)C)ccc3o2)n1 (centres unmarked) [Compound 126]
< 1000	Cc1noc(C(Cc2csc(C)n2)Nc2nc3cc(C(C)C)ccc3o2)n1 (centres unmarked) [Compound 127]

Same assay, conditions: Homo sapiens, Leukocyte, Table 7, Ketones

IC50 [nM]	SMILES
350	CC(=O)[C@H](Cc1ccccc1)Nc1nc2ccc(C(C)C)cc2s1 [Compound 128, 3-[(6-Isopropylbenzothiazol-2-yl)amino]-4-phenylbutan-2-one]
< 1000	CC(=O)[C@H](Cc1ccccc1)Nc1nc2ccccc2o1 [Compound 129]
< 300	O=C(c1ccccc1)[C@H](Cc1ccccc1)Nc1nc2ccccc2o1 [Compound 130]
< 1000	Cc1ccc2oc(N[C@@H](CC3CCCCC3)C(=O)c3ccccc3)nc2c1 [Compound 131]
23	Cc1ccc2oc(N[C@@H](CC3CCCCC3)C(=O)c3nccn3C)nc2c1 [Compound 132]

Same assay, conditions: Homo sapiens, Leukocyte, Table 8, Miscellaneous Acyclic; values with <: see footnote d, Table 1

IC50 [nM]	SMILES
16	CCOC[C@H](Cc1ccccc1)Nc1nc2cc(C(C)C)ccc2o1 [Compound 133]
220	CCCOC[C@H](Cc1ccccc1)Nc1nc2cc(C(C)C)ccc2o1 [Compound 134]
29	CCOC[C@H](Cc1ccccc1)Nc1nc2cc(Cl)ccc2o1 [Compound 135]
< 30	COCC(Cc1ccc(F)cc1)Nc1nc2cc(C(C)C)ccc2o1 (centres unmarked) [Compound 136]
< 30	CCOCC(Cc1ccc(F)cc1)Nc1nc2cc(C(C)C)ccc2o1 (centres unmarked) [Compound 137]
< 300	CCCOCC(Cc1ccc(F)cc1)Nc1nc2cc(C(C)C)ccc2o1 (centres unmarked) [Compound 138]
< 30	COCC(Cc1ccc(OC)cc1)Nc1nc2cc(C(C)C)ccc2o1 (centres unmarked) [Compound 139]
< 1000	COCC(Cc1cccnc1)Nc1nc2cc(C(C)C)ccc2o1 (centres unmarked) [Compound 140]
< 300	COCC(Cc1csc(C)n1)Nc1nc2cc(C(C)C)ccc2o1 (centres unmarked) [Compound 141]
< 30	CSC[C@H](Cc1cccc(Cl)c1)Nc1nc2cc(C(C)C)ccc2o1 [Compound 142]
< 1000	CSCC(Cc1cccnc1)Nc1nc2cc(C(C)C)ccc2o1 (centres unmarked) [Compound 143]
< 100	CSCC(Cc1csc(C)n1)Nc1nc2cc(C(C)C)ccc2o1 (centres unmarked) [Compound 145]
< 30	CC(C)c1ccc2oc(NC(Cc3ccccc3)CS(C)(=O)=O)nc2c1 (centres unmarked) [Compound 146]
< 1000	CC(C)c1ccc2oc(NC(Cc3cccnc3)CS(C)(=O)=O)nc2c1 (centres unmarked) [Compound 147]
< 300	CC(C)c1ccc2oc(N[C@@H](Cc3ccccc3)CN(C)C)nc2c1 [Compound 150]
< 100	CC(=O)NC[C@H](Cc1ccccc1)Nc1nc2cc(C(C)C)ccc2o1 [Compound 151]
< 100	CC(C)c1ccc2oc(N[C@H](CNS(=O)(=O)N(C)C)Cc3ccccc3)nc2c1 [Compound 152]
< 300	CC(C)c1ccc2oc(N[C@H](CNC(N)=O)Cc3ccccc3)nc2c1 [Compound 153]
63	CNC(=O)OC[C@H](Cc1ccccc1)Nc1nc2cc(C(C)C)ccc2o1 [Compound 154]

Same assay, conditions: Homo sapiens, Leukocyte, Table 9, Miscellaneous Heterocycle; values with <: see footnote d, Table 1

IC50 [nM]	SMILES
290	Fc1ccc(CC(Nc2nc3cc(Cl)ccc3o2)c2ncc[nH]2)cc1 (centres unmarked) [Compound 155]
90	CC(C)c1ccc2oc(NC(Cc3ccc(F)cc3)c3ncc[nH]3)nc2c1 (centres unmarked) [Compound 156]
< 1000	Cc1nc(CC(Nc2nc3cc(C(C)C)ccc3o2)c2ncc[nH]2)cs1 (centres unmarked) [Compound 157]
< 30	CC(C)c1ccc2oc(NC(Cc3cccc(Cl)c3)c3ncc[nH]3)nc2c1 (centres unmarked) [Compound 158]
< 100	CC(C)c1ccc2oc(NC(Cc3cccc(Cl)c3)c3nccs3)nc2c1 (centres unmarked) [Compound 159]
< 30	Cc1csc(C(Cc2cccc(Cl)c2)Nc2nc3cc(C(C)C)ccc3o2)n1 (centres unmarked) [Compound 160]
< 100	CC(C)c1ccc2oc(NC(Cc3ccccc3)c3cn[nH]c3)nc2c1 (centres unmarked) [Compound 161]

Same assay, conditions: Homo sapiens, Leukocyte, Table 10, Oxazolopyridines; values with <: see footnote d, Table 1

IC50 [nM]	SMILES
210	COC(=O)[C@H](CC1CCCCC1)Nc1nc2ncccc2o1 [Compound 162]
78	c1ccc(C(CC2CCCCC2)Nc2nc3ncccc3o2)cc1 (centres unmarked) [Compound 163]
28	Cc1ccc2oc(NC(CC3CCCCC3)c3ccccc3)nc2n1 (centres unmarked) [Compound 164]
300	Cc1ccc2oc(NC(CC3CCCCC3)c3cccnc3)nc2n1 (centres unmarked) [Compound 168]
21	c1ccc(C(CC2CCCCC2)Nc2nc3cccnc3o2)cc1 (centres unmarked) [Compound 170]

Same assay, conditions: Homo sapiens, Leukocyte, Table 11, Thiazolopyridines; values with <: see footnote d, Table 1

IC50 [nM]	SMILES
27	c1ccc(C(CC2CCCCC2)Nc2nc3cccnc3s2)cc1 (centres unmarked) [Compound 172, 2-[(2-Cyclohexyl-1-phenylethyl)amino]thiazolo[5,4-b]pyridine]
170	c1cncc(C(CC2CCCCC2)Nc2nc3cccnc3s2)c1 (centres unmarked) [Compound 173]
27	c1ccc(C(CC2CCCCC2)Nc2nc3cccnc3s2)nc1 (centres unmarked) [Compound 174]
31	Cc1cnc2nc(NC(CC3CCCCC3)c3ccccn3)sc2c1 (centres unmarked) [Compound 184]
6.5	Cc1nc2nc(NC(CC3CCCCC3)c3ccccn3)sc2cc1Br (centres unmarked) [Compound 185]
21	Cc1nc2nc(NC(CC3CCCCC3)c3cccnc3)sc2cc1Br (centres unmarked) [Compound 186]
13	Cc1ccc2sc(NC(CC3CCCCC3)c3ccccn3)nc2n1 (centres unmarked) [Compound 187]
3.9	Clc1cnc2nc(NC(CC3CCCCC3)c3ccccn3)sc2c1 (centres unmarked) [Compound 188]

Same assay, conditions: Table 4, Pyridyl; values with <: see footnote d, Table 1

IC50 [nM]	SMILES
4	Clc1ccc2sc(NC(CC3CCCCC3)c3ccccn3)nc2c1 (centres unmarked) [Compound 102]
1	FC(F)(F)c1ccc2oc(NC(CC3CCCCC3)c3ccccn3)nc2c1 (centres unmarked) [Compound 108]

Source: patent publication US5552421A, “Leukotriene biosynthesis inhibitors” (Boehringer Ingelheim Pharmaceuticals, Inc., priority 1995, dated 1996)
